The source of these data is publication PMC3833293 (ACS Chemical Biology, 2013).

The test system of assay [1] is wild-type and drug-resistant HIV clones. In words: Monogram drug susceptibility assays, profile across viral panel. Particulars: weakest EC50 to a variant divided by that to wild-type. In kind it is cell-based, HIV-1.
Assay [2] has as its system wild-type HIV-1 protease and drug-resistant variants M1, M2, M3, M4. In words: FRET enzyme inhibition, profile across wild type and mutant panel. In kind it is biochemical. The settings on record: weakest Ki to a drug-resistant variant divided by Ki to wild type.
For assay [3], the target named is wild-type HIV-1 protease (Human immunodeficiency virus type 1 group M subtype B, UniProt P03369). In words: FRET enzyme inhibition assay, wild-type protease. The assay is classed as biochemical.
The target of assay [4] is HIV-1 protease M2 (D30N, N88D) (Human immunodeficiency virus type 1 group M subtype B, UniProt P03369, D520N/N578D). The experiment in a line: FRET enzyme inhibition assay, M2 variant. In kind it is biochemical.
For assay [5], the target named is HIV-1 protease M4 (I50V, A71V) (Human immunodeficiency virus type 1 group M subtype B, UniProt P03369, A561V/I540V). In words: FRET enzyme inhibition assay, M4 variant. In kind it is biochemical.

SMILES strings stand for the structures.

`O=C(N[C@@H](Cc1ccccc1)[C@H](O)CN(CC1CCCCC1)S(=O)(=O)c1ccc2ncsc2c1)c1cccc(O)c1` [AF-72]: the worst-fold activity loss in assay [1] is reported as 2.6 fold.
In assay [2], `COc1ccc(S(=O)(=O)N(CCCc2ccccc2)C[C@@H](O)[C@H](Cc2ccccc2)NC(=O)c2cccc(O)c2)cc1` [AF-78] gave a worst-fold affinity loss of 98 fold.
With `CC[C@H](C)CN(C[C@@H](O)[C@H](Cc1ccccc1)NC(=O)c1cccc(O)c1)S(=O)(=O)c1ccc(-c2ccno2)s1` [AF-71], in assay [3] (AF-71 vs AD-93, AF-80 vs KB-83), the “loss in affinity to wild-type protease compared to parent compound” value amounted to 72 fold.
The compound `COc1ccc(S(=O)(=O)N(CC2CCCCC2)C[C@@H](O)[C@H](Cc2ccccc2)NC(=O)c2cccc(O)c2)cc1` [AF-77] returned a worst-fold activity loss in assay [1] of 2.2 fold.
The same measure, in the same setting: the figure for `CC[C@H](C)[C@H](NC(C)=O)C(=O)N[C@@H](Cc1ccccc1)[C@H](O)CN(CC(C)C)S(=O)(=O)c1ccc(OC)cc1` [AF-68] is 4.4 fold.
Consider `CC[C@H](C)CN(C[C@@H](O)[C@H](Cc1ccccc1)NC(=O)[C@@H](NC(C)=O)[C@@H](C)CC)S(=O)(=O)c1ccc2ncsc2c1` [AG-23], for which the Ki was 21 ± 9 pM in assay [3] (Ki, wild type, mean ± standard deviation); 28 ± 25 pM in assay [4]; 92 ± 25 pM in assay [5]. In assay [1], this compound had a worst-fold activity loss of 3.2 fold.
